Kd data for one compound are collected here from PMC7532676, “Salidroside can target both P4HB-mediated inflammation and melanogenesis of the skin” (Theranostics, 2020).

By Kd is commonly meant the free concentration of one partner at which half of the binding sites on the other are occupied at equilibrium, for simple one-to-one binding.

The experiment concerns the target prolyl 4-hydroxylase beta polypeptide (P4HB) (Homo sapiens, UniProt P07237). Put plainly: surface plasmon resonance (Biacore […]). The format is binding. A general note: Surface plasmon resonance follows binding to a sensor surface in real time, without labels.

Structures are written as SMILES.

Chain of prolyl 4-hydroxylase beta polypeptide (P4HB) (P07237 18-508): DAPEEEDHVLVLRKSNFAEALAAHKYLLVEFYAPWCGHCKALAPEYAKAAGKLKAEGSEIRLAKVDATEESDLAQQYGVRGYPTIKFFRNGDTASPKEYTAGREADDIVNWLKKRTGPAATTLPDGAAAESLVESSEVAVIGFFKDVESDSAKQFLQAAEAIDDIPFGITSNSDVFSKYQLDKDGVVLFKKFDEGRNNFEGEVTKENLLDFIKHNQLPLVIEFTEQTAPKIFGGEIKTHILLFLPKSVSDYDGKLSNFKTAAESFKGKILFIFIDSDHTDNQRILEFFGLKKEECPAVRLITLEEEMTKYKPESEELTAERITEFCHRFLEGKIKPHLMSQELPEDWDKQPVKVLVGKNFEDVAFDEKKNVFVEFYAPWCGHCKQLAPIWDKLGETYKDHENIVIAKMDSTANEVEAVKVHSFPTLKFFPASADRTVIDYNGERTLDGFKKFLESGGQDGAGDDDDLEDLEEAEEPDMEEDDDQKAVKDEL

`OC[C@H]1O[C@@H](OCCc2ccc(O)cc2)[C@H](O)[C@@H](O)[C@@H]1O` [SAL, Salidroside] showed a Kd of 13.8 µM.
